{"source": "paper PMC6982808", "about": "“Design and Biological Evaluation of Colchicine-CD44-Targeted Peptide Conjugate in an In Vitro Model of Crystal Induced Inflammation” (Molecules, 2019)", "key": {"[1]": {"system": "CD44 receptor on THP-1 macrophages", "experiment": "CD44 surface expression on THP-1 macrophages under conditions of inflammation (flow cytometry)", "type": "cell-based, human", "details": "24 h, serum-free medium", "experimental": "THP-1 monocytes were cultured in RPMI 1640 medium supplemented with 10% heat-inactivated FBS, 10 mM HEPES, 2 mM glutamine, 100 U/I penicillin, and 100 μg/mL streptomycin and maintained at 37 °C and 5% CO2. THP-1 monocytes were differentiated into THP-1 macrophages using 50 ng/mL phorbol-12-myristate 13-acetate (PMA) for 24 h. Subsequently, adherent cells were washed twice with serum-free medium and rested for another 24 h in PMA-free RPMI + 10% FBS medium. CD44 expression on THP-1 macrophages was conducted using flow cytometry following incubation with the CD44-specific antibody (1:1000 dilution) for 1 h followed by cell pelleting and washing the cell pellet with PBS. THP-1 macrophages were then incubated with DyLight 488 goat anti-mouse IgG at 1:1000 dilution for 30 min. […] THP-1 macrophages were washed with PBS, collected, and CD44 expression was determined using flow cytometry as described above."}, "THP-1 macrophages [2]": {"system": "THP-1 macrophages", "experiment": "IL-8 secretion by MSU-stimulated THP-1 macrophages (ELISA)", "type": "cell-based, human", "details": "1, 10 and 25 μM, 24 h, then MSU 100 μg/mL 6 h; vs MSU alone", "experimental": "(§1) THP-1 macrophages (500,000 cells per well) were treated with MSU crystals (100 μg/mL) for 2, 4, and 6 h. ROS staining solution (1:1000 ratio) was added to the wells and incubated for 1 h. Subsequently, cells were collected, washed, and cell-associated fluorescence was determined using flow cytometry. Media were collected at 2, 4, and 6 h, and IL-8 media concentrations were determined by ELISA. […] Subsequently, cells were treated with MSU crystals (100 μg/mL) for 6 h. ROS generation and IL-8 concentrations were determined as described above."}, "THP-1 macrophages [3]": {"system": "THP-1 macrophages", "experiment": "ROS generation in MSU-stimulated THP-1 macrophages (flow cytometry)", "type": "cell-based, human", "details": "10 and 25 μM, 24 h, then MSU 100 μg/mL 6 h; vs MSU alone", "experimental": "as §1"}, "THP-1 macrophages [4]": {"system": "THP-1 macrophages", "experiment": "MSU crystal phagocytosis by THP-1 macrophages (flow cytometry side-scatter, % cells in P2 region)", "type": "cell-based, human", "experimental": "THP-1 macrophages (500,000 cells per well) were treated with MSU crystals (100 μg/mL) ± HA (100 μg/mL) for 4 h. Subsequently, macrophages were collected, pelleted, and washed with PBS. MSU phagocytosis was determined by analyzing the change in cell side-scatter using a flow cytometer. Two regions of interest were identified: the P1 region representing the THP-1 macrophage population in the absence of MSU crystal exposure and the P2 region with increased cell side scatter indicative of MSU phagocytosis. Data are presented as the percentage of cells in the P2 region across different experimental groups.\nSubsequently, cells were treated with MSU crystals (100 μg/mL) for 4 h. MSU phagocytosis by THP-1 macrophages was determined using flow cytometry as described above."}, "THP-1 macrophages [5]": {"system": "THP-1 macrophages", "experiment": "Cytotoxicity against THP-1 macrophages (Cell Counting Kit-8)", "details": "24 h, CCK-8; for cytotoxic effect against THP-1 macrophages (in words): 1, 10 and 25 μM, three independent experiments", "experimental": "Subsequently, 10 μL of CCK-8 solution was added to each well and absorbance was measured 90 min later at 450 nm. Cytotoxicity was expressed as the percentage of viable cells following treatments."}, "in vitro": {"experiment": "in vitro", "details": "human, cerebrospinal or other body fluid", "quoted_text": "Using seven microcentrifuge tubes, a total of 50 μL of normal SF was diluted with 150 μL of PBS in each tube. Following equilibrating diluted SF to 37 ± 1 °C for 15 min, 50 μL of peptide stock solution (1 mM solution in 100% sterile water) was added to each tube. Next, at different time intervals (0, 1, 2, 3, 4, 6, and 24 h), an aliquot of the reaction solution (100 μL) was sampled. Cold methanol (200 μL) was added to each aliquot in order to precipitate proteins that were present in the SF. This was followed by cooling the solution to 4 °C for 15 min followed by centrifugation at 500 g for 15 min to precipitate SF proteins. To determine the proteolytic stability of the P6 peptide, the supernatant was injected into an analytical RP-HPLC C18 column. In order to measure the concentration of the P6 peptide isolated from SF, the area under the curve (AUC) of the P6 peptide at each time point was estimated using an average of four runs, and normalized to AUC values at time 0 and expressed as the percentage of AUC at time 0."}, "[6]": {"biological_target": "T1, recombinant human CD44 receptor (Homo sapiens, UniProt P16070)", "T1 construct": "purchased R&D Systems", "T1 sequence (P16070 with tags, fused parts or gaps limits assumed)": "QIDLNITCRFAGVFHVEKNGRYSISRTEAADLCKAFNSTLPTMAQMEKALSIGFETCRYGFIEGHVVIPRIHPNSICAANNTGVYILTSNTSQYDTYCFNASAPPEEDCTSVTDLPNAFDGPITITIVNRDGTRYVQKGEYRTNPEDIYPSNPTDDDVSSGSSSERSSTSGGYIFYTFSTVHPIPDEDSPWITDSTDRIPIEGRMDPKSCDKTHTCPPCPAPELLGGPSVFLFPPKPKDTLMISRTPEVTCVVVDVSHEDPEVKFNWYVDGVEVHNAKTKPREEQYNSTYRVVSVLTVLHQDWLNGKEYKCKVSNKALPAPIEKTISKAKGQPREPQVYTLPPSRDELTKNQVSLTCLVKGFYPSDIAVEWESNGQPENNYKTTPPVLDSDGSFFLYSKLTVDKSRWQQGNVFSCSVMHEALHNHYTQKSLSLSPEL", "experiment": "ELISA binding of coated P6 peptide or HA to CD44-IgG Fc fusion protein", "details": "for binding to the CD44 receptor (ELISA absorbance at 450 nm): wells coated 1 ng/mL to 1 μg/mL, CD44-IgG Fc 0.1 µg/mL, 1 h room temperature, three independent experiments", "experimental": "Wells of high-binding microtiter plates were coated with either the P6 peptide or high molecular weight HA (molecular weight >1 million Da) in serial concentrations between 1 ng/mL and 1 μg/mL overnight in phosphate buffered saline (PBS) (100 µL per well) at 4 °C. […] CD44-IgG Fc fusion protein (R&D Systems) (0.1 µg/mL) in PBS + 0.05% Tween 20 (100 µL per well) was added to both coated and uncoated wells and incubated for 1 h at room temperature. Following washing with PBS + 0.1% Tween 20, anti-human IgG Fc-HRP (1:1000) was added and incubated at room temperature for 1 h, followed by washing three times with PBS + 0.05% Tween 20. Turbo TMB-ELISA substrate solution was added (100 µL per well), and absorbance intensity was determined at 450 nm. Absorbance values in the […] to adjust for any non-specific binding by CD44-IgFc."}}, "note": "Ends that are not written are not given here."}
{"compound": "O=c1[nH]c(=O)c2[nH]c(=O)[nH]c2[nH]1", "note": "[UA, uric acid]", "values": [{"measurement": "enhancement in cell surface CD44 protein staining compared to untreated control macrophages", "setting": "[1]; UA 10 mg/dL", "result": "approximately 3 fold"}]}
{"compound": "COc1cc2c(c(OC)c1OC)-c1ccc(OC)c(=O)cc1[C@@H](NC(C)=O)CC2", "note": "[colchicine]", "values": [{"measurement": "IL-8 secretion", "setting": "THP-1 macrophages [2]", "result": "reduced"}, {"measurement": "ROS generation", "setting": "THP-1 macrophages [3]", "result": "reduced"}, {"measurement": "MSU phagocytosis by THP-1 macrophages", "setting": "THP-1 macrophages [4]; 1, 10 and 25 μM, 24 h pre-treatment, then MSU 100 μg/mL 4 h, vs MSU alone", "result": "reduced MSU phagocytosis"}, {"measurement": "reduction of macrophage cell viability", "setting": "THP-1 macrophages [5]; 1 μM", "result": "approximately 50%"}, {"measurement": "reduction of macrophage cell viability", "setting": "THP-1 macrophages [5]; 25 μM", "result": "approximately 80%"}, {"measurement": "cytotoxic effect against THP-1 macrophages (in words)", "setting": "THP-1 macrophages [5]", "result": "dose-dependent cytotoxic effect"}]}
{"compound": "IL-1β: recombinant human IL-1β, proinflammatory cytokine", "values": [{"measurement": "enhancement in cell surface CD44 protein staining compared to untreated control macrophages", "setting": "[1]; IL-1β 10 ng/mL", "result": "approximately two-fold"}]}
{"compound": "WYKGDKFLYLQNGIEAIADF-NH2 [P6 peptide]", "values": [{"measurement": "IL-8 secretion", "setting": "THP-1 macrophages [2]", "result": "reduced"}, {"measurement": "half-life at 200 μM", "setting": "in vitro", "result": "~4", "unit": "h"}, {"measurement": "difference between P6 peptide and HA binding to CD44", "setting": "[6]; across all coating concentrations 1 ng/mL to 1 μg/mL", "result": "no significant difference"}, {"measurement": "binding to the CD44 receptor (ELISA absorbance at 450 nm)", "setting": "[6]", "result": "concentration-dependent binding"}, {"measurement": "ROS generation", "setting": "THP-1 macrophages [3]", "result": "reduced"}, {"measurement": "MSU phagocytosis by THP-1 macrophages", "setting": "THP-1 macrophages [4]; 10 and 25 μM, 24 h pre-treatment, then MSU 100 μg/mL 4 h, vs MSU alone", "result": "significantly reduced MSU phagocytosis"}, {"measurement": "cytotoxic effect against THP-1 macrophages (in words)", "setting": "THP-1 macrophages [5]", "result": "no cytotoxic effect"}]}
{"compound": "hyaluronic acid [HA]", "values": [{"measurement": "binding to the CD44 receptor (ELISA absorbance at 450 nm)", "setting": "[6]", "result": "concentration-dependent binding"}, {"measurement": "MSU phagocytosis by THP-1 macrophages", "setting": "THP-1 macrophages [4]; 100 μg/mL co-treatment with MSU 100 μg/mL for 4 h", "result": "significantly reduced MSU phagocytosis"}]}
